Experimental data from publication PMC12064818, “A general assay platform to study protein pharmacology using ligand-dependent structural dynamics” (Nature Communications, 2025).

How the values were obtained:
FLuc-C-HiBiT = molecular target: T1, FLuc-C-HiBiT (Photinus pyralis, UniProt P08659); experiment: biochemical; details: enzyme activity, 10 uM ATP; read-out: IC50 or SDR50 (mM) / FLuc E
T1 construct: firefly luciferase with C-terminal HiBiT tag, E. coli expressed

[1] = molecular target: FLuc-N-HiBiT (firefly luciferase) (Photinus pyralis, UniProt P08659, form not given/L550V); experiment: SDR assay, FLuc-N-HiBiT; details: substituted indoline (clade A'); for % Activity (max response, + ATP) / % Activity (max response, - ATP): SDR
Chain of FLuc-N-HiBiT (firefly luciferase) (P08659 2-550 L550V, form open): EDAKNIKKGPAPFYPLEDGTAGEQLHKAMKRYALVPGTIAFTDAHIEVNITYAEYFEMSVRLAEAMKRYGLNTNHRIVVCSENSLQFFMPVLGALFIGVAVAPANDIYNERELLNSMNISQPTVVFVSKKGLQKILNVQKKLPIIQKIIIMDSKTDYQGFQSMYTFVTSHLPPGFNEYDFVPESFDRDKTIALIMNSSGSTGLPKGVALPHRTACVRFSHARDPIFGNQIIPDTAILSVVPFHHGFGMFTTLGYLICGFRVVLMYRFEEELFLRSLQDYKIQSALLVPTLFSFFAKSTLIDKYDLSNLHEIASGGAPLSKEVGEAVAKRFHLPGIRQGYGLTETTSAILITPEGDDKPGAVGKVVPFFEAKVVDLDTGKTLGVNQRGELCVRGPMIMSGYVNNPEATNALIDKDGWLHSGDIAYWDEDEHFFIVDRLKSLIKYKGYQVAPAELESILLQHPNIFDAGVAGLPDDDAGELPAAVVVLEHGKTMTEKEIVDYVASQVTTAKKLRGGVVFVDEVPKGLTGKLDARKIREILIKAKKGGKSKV

T1 sequence (P08659 whole entry, looked up): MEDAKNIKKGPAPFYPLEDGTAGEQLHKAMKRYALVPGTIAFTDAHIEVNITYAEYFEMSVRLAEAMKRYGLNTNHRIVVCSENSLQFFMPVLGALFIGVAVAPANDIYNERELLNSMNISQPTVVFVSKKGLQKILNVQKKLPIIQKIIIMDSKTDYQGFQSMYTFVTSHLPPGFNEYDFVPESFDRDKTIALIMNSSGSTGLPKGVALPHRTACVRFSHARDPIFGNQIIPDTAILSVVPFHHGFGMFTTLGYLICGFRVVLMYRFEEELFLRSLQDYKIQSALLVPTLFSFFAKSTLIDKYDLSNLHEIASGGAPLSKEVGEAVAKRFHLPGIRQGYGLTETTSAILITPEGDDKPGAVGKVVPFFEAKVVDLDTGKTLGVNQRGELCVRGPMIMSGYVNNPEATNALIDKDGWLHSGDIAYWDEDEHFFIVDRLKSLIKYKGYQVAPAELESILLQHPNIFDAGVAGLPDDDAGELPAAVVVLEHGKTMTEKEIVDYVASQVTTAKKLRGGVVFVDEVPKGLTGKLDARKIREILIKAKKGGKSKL

| Structure (SMILES) | IC50 (FLuc-C-HiBiT) [nM] | % Activity (max response, + ATP) ([1]; + ATP) [%] | % Activity (max response, - ATP) ([1]; - ATP) [%] | pSDR50 (clade A') ([1]; + ATP) | pSDR50 (clade A') ([1]; - ATP) |
| --- | --- | --- | --- | --- | --- |
| CCCNC(=O)c1cccc2c1CCN2C(=O)Nc1cccc(C)c1 [NCGC00430116-01] | 2480 | 115.10 | 34.94 | 5.48 | 3.57 |
| CNC(=O)c1cccc2c1CCN2C(=O)Nc1ccc(C)cc1 [NCGC00430160-01] | 351 | 123.10 | 78.58 | 6.37 | 4.88 |
| O=C(NCc1ccco1)c1cccc2c1CCN2C(=O)Nc1ccc(F)cc1 [NCGC00430142-01] | 1110 | 118.20 | 37.02 | 5.76 | 3.81 |
| CN(C)CCNC(=O)c1cccc2c1CCN2C(=O)Nc1ccccc1 [NCGC00430150-01] | 700 | 120.00 | 17.07 | 5.93 | – |
| COc1ccc(NC(=O)N2CCc3c(C(=O)N(C)C)cccc32)cc1 [NCGC00430182-01] | 111 | 126.00 | 37.35 | 6.80 | 4.62 |
| O=C(O)c1cccc2c1CCN2C(=O)c1ccccc1 [NCGC00432607-01] | 3940 | 65.64 | 14.85 | 5.66 | – |
| O=C(O)c1cccc2c1CCN2C(=O)c1ccc(F)cc1 [NCGC00432675-01] | 1760 | 81.35 | 20.90 | 5.89 | 4.16 |
| CCN1CCN(CCNC(=O)c2cccc3c2CCN3C(=O)Nc2ccc(C)cc2)CC1 [NCGC00430114-01] | 1110 | 125.50 | 93.19 | 5.79 | 4.11 |
| CCC(C)(C)NC(=O)c1cccc2c1CCN2C(=O)Nc1cccc(C)c1 [NCGC00430120-01] | 7850 | 86.92 | 21.61 | 4.90 | 2.52 |
| CCOC(=O)C1CCN(C(=O)c2cccc3c2CCN3C(=O)Nc2ccccc2)CC1 [NCGC00430100-01] | 1760 | 124.90 | 16.28 | 5.52 | – |
| O=C(O)c1cccc2c1CCN2C(=O)Nc1ccc(F)cc1 [NCGC00432687-01] | 3.51 | 127.90 | 102.18 | 8.36 | 4.92 |
| Cc1ccc(NC(=O)N2CCc3c(C(=O)NCCc4ccccn4)cccc32)cc1 [NCGC00430168-01] | 4420 | 131.70 | 51.01 | 4.89 | 4.36 |
| Cc1ccc(NC(=O)N2CCc3c(C(=O)NCc4ccco4)cccc32)cc1 [NCGC00430166-01] | 49.5 | 127.00 | 89.24 | 7.11 | 5.17 |
